From patent EP0503079A1, “PYRIDAZINONE-SUBSTITUTED ETHYNYLPHENYL DERIVATIVE AND REMEDY FOR CIRCULATORY ORGAN DISEASE CONTAINING THE SAME AS ACTIVE INGREDIENT” (KAKEN PHARMACEUTICAL CO., LTD., priority 1990, dated 1992)

Tests used:
Slc-ddy male mice = assay: Activity on hypoxia induced in decapitation of mice (gasping time); type: in vivo; set-up: dose or concentration left out as unconfirmed; conditions: gasping time after decapitation, one hour after oral administration
Procedure: In each group, 3 Slc-ddy male mice (4 weeks) were employed. Each test compound was suspended or dissolved in a 0.5 % methyl cellulose solution. After the concentration was adjusted, the dose became […], the solution was administered orally. One hour after the administration, mice were decapitated and gasping time was measured.
(§1) Inhibition rate was calculated by the following formula. [formula]

platelet aggregation = assay: Inhibitory activity on platelet aggregation (turbidimetry); type: cell-based, New Zealand White male rabbits; conditions: for Inhibition rate (%) ADP aggregation: 0.6 µg/mℓ ADP; for Inhibition rate (%) PAF aggregation: 5 x 10⁻⁹M PAF; for Inhibition rate (%) Collagen aggregation: 2 µg/mℓ collagen
Procedure: Blood was exsanguinated from New Zealand White male rabbits weighing from 2.5 to 3.0 kg and subjected to the test. Each test compound was dissolved in ethanol and prepared to be 1 x 10⁻⁵, 1 x 10⁻⁶ or 1 x 10⁻⁷M respectively. Each aggregation response was measured by turbidimetry. Concentration of aggregating agent was 2 µg/mℓ of collagen, 0.6 µg/mℓ of adenosine 5'-diphosphate (ADP) or 5 x 10⁻⁹M of platelet aggregating factor (PAF).
as §1

[1] = system: Aortae abdominalis of male Wister rats; assay: Anti-norepinephrine activity on rat abdominal aorta strip preparations (auto-Magnus apparatus); conditions: tension by norepinephrine (10⁻⁷M) regarded as 100
Procedure: Aortae abdominalis of male Wister rats (8-12 weeks) were delivered and cut in spiral-shape to be strip preparations. Each test compounds was disolved in DMSO. Then, the solution was diluted with distilled water and prepared to be desired concentration. Using an auto-Magnus apparatus, as to the vasoconstriction after adding norepinephrine, contractive forces were measured under the existence of the test compounds.

Slc: ddy male mice = assay: Activity on stress ulcers (restraint and water immersion); type: in vivo; conditions: length of ulcer in glandular stomach; 30 mg/kg orally; restrained and immersed in water of 23°C for 7 hours
Procedure: In each group, 5 Slc: ddy male mice (6 weeks) were employed. Each test compound was kneaded with Tween-80 followed by adding a 0.5 % solution of gum arabic to prepare 30 mg/10 mℓ solution (solution containing 1.5 % Tween-80 and 0.5 % gum arabic). Then, the preparation was administered orally in a rate of 30 mg/kg. After the administration, the mice were restrained and immersed in a water tank of 23°C for 7 hours. Then, length of the ulcer in the glandular stomach was measured by a stereoscopic microscope (x 10).

Acute toxicity = type: in vivo, mice; conditions: mouse, in vivo; oral administration, death rate after 7 days; read-out: LD₅₀
Procedure: In each group, 6 Slc: ddy male mice weighing 25 to 29 g (6 weeks) were employed. Each compound was administered orally thereto and a value of acute toxicity was evaluated with death rate after 7 days.

| Molecule | Inhibition rate (%) (Slc-ddy male mice) | Inhibition rate (%) ADP aggregation (platelet aggregation; compound 10⁻⁵ M) [%] | Inhibition rate (%) PAF aggregation (platelet aggregation; compound 10⁻⁵ M) [%] | Inhibition rate (%) ADP aggregation (platelet aggregation; compound 10⁻⁶ M) [%] | Inhibition rate (%) Collagen aggregation (platelet aggregation; compound 10⁻⁶ M) [%] | Inhibition rate (%) ADP aggregation (platelet aggregation; compound 10⁻⁷ M) [%] | Inhibition rate (%) Collagen aggregation (platelet aggregation; compound 10⁻⁷ M) [%] | Contractive force ([1]; compound 10⁻⁷ M) | Contractive force ([1]; compound 10⁻⁸ M) | Contractive force ([1]; compound 10⁻⁹ M) | Inhibition rate (%) (Slc: ddy male mice) | LD50 at 168 h (Acute toxicity) [mg/kg] |
| --- | --- | --- | --- | --- | --- | --- | --- | --- | --- | --- | --- | --- |
| 2,6-dimethyl-3-methoxycarbonyl-5-{4-(6-oxo-1,4,5,6-tetrahydropyridazinon-3-yl)phenyl}aminocarbonyl-4-[3-{2-(4-nitro)phenyl)ethynyl]phenyl-1,4-dihydropyridine [Compound 4] | 13.2 | 91 | 64 | 58 | 92 | 22 | 24 | 13.2 | 71.5 | 93.2 |  |  |
| 2,6-dimethyl-3-methoxycarbonyl-5-{4-(6-oxo-1,4,5,6-tetrahydropyridazinon-3-yl)phenyl}aminocarbonyl-4-{3-(1-heptyn-1-yl)}phenyl-1,4-dihydropyridine [Compound 3] |  | 87 | 65 | 59 | 93 | 18 | 28 | 12.5 | 68.3 | 92.4 |  |  |
| 2,6-dimethyl-3-methoxycarbonyl-5-{4-(6-oxo-1,4,5,6-tetrahydropyridazinon-3-yl)phenyl}aminocarbonyl-4-{3-(6-morpholino-1-hexyn-1-yl)}phenyl-1,4-dihydropyridine [Compound 5] | 3.2 | 89 | 59 | 61 | 89 | 20 | 26 |  |  |  |  |  |
| 2,6-dimethyl-4-(3-ethynylphenyl)-3-methoxycarbonyl-5-{4-(4-methyl-6-oxo-1,4,5,6-tetrahydropyridazinon-3-yl)phenyl}aminocarbonyl-1,4-dihydropyridine [Compound 16] | 3.4 | 88 | 66 | 65 | 97 | 19 | 25 | 17.9 | 86.4 | 105.3 |  |  |
| 2,6-dimethyl-4-(3-ethynylphenyl)-3-methoxycarbonyl-5-{4-(5-methyl-6-oxo-1,4,5,6-tetrahydropyridazinon-3-yl)phenyl}aminocarbonyl-1,4-dihydropyridine [Compound 15] | 5.2 | 88 | 40 | 47 | 96 | 16 | 28 | 9.8 | 68.3 | 85.6 | 98.1 |  |
| 4-{3-(2-tert-butoxycarbonyl)ethynyl}phenyl-2,6-dimethyl-5-{4-(6-oxo-1,4,5,6-tetrahydropyridazinon-3-yl)phenyl}aminocarbonyl-3-methoxycarbonyl-1,4-dihydropyridine [Compound 8] | 12.8 |  |  |  |  |  |  |  |  |  | 75.4 |  |
| C#Cc1cccc(C2C(C(=O)Nc3ccc(C4=NNC(=O)CC4)cc3)=C(C)NC(N)=C2C(=O)OCC)c1 (stereo not drawn) [Compound 12, 2-amino-3-ethoxycarbonyl-4-(3-ethynylphenyl)-6-methyl-5-{4-(6-oxo-1,4,5,6-tetrahydropyridazinon-3-yl)phenyl)aminocarbonyl-1,4-dihydropyridine] | 30.2 | 96 | 72 | 81 | 96 | 35 | 33 | 10.3 | 69.4 | 90.2 | 98.7 | 1200 |
| C#Cc1ccc(OC)c(C2C(C(=O)Nc3ccc(C4=NNC(=O)CC4)cc3)=C(C)NC(C)=C2C(=O)OCC)c1 (stereo not drawn) [Compound 18, 2,6-dimethyl-4-(3-ethynyl-6-methoxyphenyl)-3-ethoxycarbonyl-5-{4-(6-oxo-1,4,5,6-tetrahydropyridazinon-3-yl)phenyl}aminocarbonyl-1,4-dihydropyridine] |  | 82 | 61 | 61 | 100 | 19 | 30 | 16.3 | 90.5 | 111.2 |  |  |
| C#Cc1cccc(C2C(C(=O)Nc3ccc(C4=NNC(=O)CC4CC)cc3)=C(C)NC(C)=C2C(=O)OC)c1 (stereo not drawn) [Compound 19, 2,6-dimethyl-4-(3-ethynylphenyl)-5-{4-(4-ethyl-6-oxo-1,4,5,6-tetrahydropyridazinon-3-yl)phenyl} aminocarbonyl-3-methoxycarbonyl-1,4-dihydropyridine] | 5.6 | 83 | 38 | 63 | 91 | 20 | 28 | 14.9 | 84.9 | 101.1 | 92.6 |  |
| C#Cc1cccc(C2C(C(=O)Nc3ccc(C4=NNC(=O)CC4)cc3)=C(C)NC(C)=C2C(=O)OCC)c1 (stereo not drawn) [Compound 20, 2,6-dimethyl-4-(3-ethynylphenyl)-3-ethoxycarbonyl-5-{4-(6-oxo-1,4,5,6-tetrahydropyridazinon-3-yl)phenyl}aminocarbonyl-1,4-dihydropyridine] |  | 93 | 70 | 68 | 95 | 20 | 23 |  |  |  |  |  |
| C#Cc1cccc(C2C(C(=O)Nc3ccc(C4=NNC(=O)CC4)cc3)=C(C)NC(C)=C2C(=O)OCCOC)c1 (stereo not drawn) [Compound 22, 2,6-dimethyl-4-(3-ethynylphenyl)-3-methoxyethoxycarbonyl-5-{4-(6-oxo-1,4,5,6-tetrahydropyridazinon-3-yl)phenyl}aminocarbonyl-1,4-dihydropyridine] |  | 86 | 48 | 55 | 100 | 14 | 29 |  |  |  |  |  |
| C#Cc1cccc(C2C(C(=O)Nc3ccc(C4=NNC(=O)CC4C)cc3)=C(C)NC(N)=C2C(=O)OCC)c1 (stereo not drawn) [Compound 23, 2-amino-4-(3-ethynylphenyl)-3-ethoxycarbonyl-6-methyl-5-{4-(6-oxo-4-methyl-1,4,5,6-tetrahydropyridazinon-3-yl)phenyl}aminocarbonyl-1,4-dihydropyridine] |  | 86 | 47 | 56 | 100 | 18 | 30 |  |  |  | 91.7 |  |
| CCOC(=O)C1=C(N)NC(C)=C(C(=O)Nc2ccc(C3=NNC(=O)CC3)cc2)C1c1cccc(C#CC(C)(C)O)c1 (stereo not drawn) [Compound 24, 2-amino-4-{3-(3-hydroxy-3-methyl)-1-butyn-1-yl}phenyl-3-ethoxycarbonyl-6-methyl-5-{4-(6-oxo-1,4,5,6-tetrahydropyridazinon-3-yl)phenyl}aminocarbonyl-1,4-dihydropyridine] | 24.2 | 92 | 60 | 70 | 90 | 27 | 29 | 11.1 | 72.4 | 88.8 |  | 1100 |
